Laboratory results taken from ChEMBL document CHEMBL1155792, “QSAR prediction of inhibition of aldose reductase for flavonoids” (Bioorg Med Chem, 2008).

Molecular target: Aldo-keto reductase family 1 member B1 (Rattus norvegicus, UniProt P07943)
Assay: Inhibition of rat lens aldose reductase

Point of comparison: `COc1cc(O)cc2oc(-c3ccccc3)cc(=O)c12`, IC50 1000 µM. Against it:
- COc1cc(O)c2c(=O)cc(-c3cc(OC)c(O)cc3OC)oc2c1 — the same, 1000 µM
- COc1c(OC)c(O)c2c(=O)cc(-c3ccc(O)cc3)oc2c1OC [XANTHOMICROL] — 1900-fold lower, 0.537 µM
- COc1c(O)c(O)c2c(=O)cc(-c3ccc(O)c(O)c3)oc2c1OC — 15000-fold lower, 0.0646 µM
- COc1c(O)c(O)c(O)c2c(=O)cc(-c3ccc(O)cc3)oc12 — 830-fold lower, 1.2 µM
- COc1c(O)c(O)c(O)c2c(=O)cc(-c3ccccc3)oc12 — 120-fold lower, 8.13 µM
- COc1c(O)cc(O)c2c(=O)cc(-c3ccc(O)c(O)c3)oc12 — 3500-fold lower, 0.282 µM
- O=c1cc(-c2ccccc2O)oc2cc(O)ccc12 — 600-fold lower, 1.66 µM
- COc1cc2oc(-c3ccc(OC4O[C@H](CO)[C@@H](O)[C@H](O)[C@H]4O)c(O)c3)cc(=O)c2c(O)c1OC (some centres not stated) — 120-fold lower, 8.2 µM
- COc1cc2oc(-c3ccc(O)c(O)c3)c(OC)c(=O)c2c(OC)c1OC — 3700-fold lower, 0.269 µM
- COc1c(-c2ccc(O)c(O)c2)oc2c(OC)c(O)cc(OC)c2c1=O — 3500-fold lower, 0.282 µM
- COc1c(O)c(OC)c2oc(-c3ccc(O)cc3)cc(=O)c2c1O — 2500-fold lower, 0.407 µM
- O=c1cc(-c2ccc(O)c(O)c2)oc2cc(O)c(O)c(O)c12 [6-HYDROXYLUTEOLIN] — 4900-fold lower, 0.204 µM
- COc1c(O)c(OC)c2c(=O)cc(-c3ccc(O)c(O)c3)oc2c1OC — 29000-fold lower, 0.035 µM
- COc1cc2oc(-c3ccc(O)c(O)c3)cc(=O)c2c(OC)c1O — 7100-fold lower, 0.141 µM
- COc1c(OC)c(O)c2c(=O)cc(-c3ccc(O)c(O)c3)oc2c1OC [SIDERITIFLAVONE] — 26000-fold lower, 0.0389 µM
- COc1cc(-c2cc(=O)c3c(O)c(O)c(O)c(OC)c3o2)ccc1O — 830-fold lower, 1.2 µM
- COc1cc2oc(-c3ccc(O)c(O)c3)c(OC)c(=O)c2c(O)c1O — 1200-fold lower, 0.813 µM
- COc1cc2oc(-c3ccc(O)c(O)c3)cc(=O)c2c(O)c1OC [CIRSILIOL] — 5900-fold lower, 0.17 µM
- COc1cc(OC)c2c(=O)cc(-c3ccc(O)c(O)c3)oc2c1OC — 22000-fold lower, 0.0447 µM
- COc1cc(-c2cc(=O)c3c(OC)c(OC)c(OC)c(OC)c3o2)ccc1O — 54-fold lower, 18.6 µM
- COc1cc2oc(-c3ccc(O)c(O)c3)cc(=O)c2c(O)c1O — 3300-fold lower, 0.302 µM
- COc1cc2oc(-c3ccc(O)c(O)c3)c(OC)c(=O)c2c(O)c1OC [CHRYSOSPLENOL D] — 2900-fold lower, 0.348 µM
- COc1cc(-c2cc(=O)c3c(O)c(OC)c(O)c(OC)c3o2)ccc1O [SUDACHITIN] — 220-fold lower, 4.47 µM
- COc1c(-c2ccc(O)c(O)c2)oc2c(OC)c(O)cc(O)c2c1=O — 4200-fold lower, 0.24 µM
- COc1ccc(-c2cc(=O)c3c(O)c(OC)c(O)c(OC)c3o2)cc1 [NEVADENSIN] — 140-fold lower, 7.24 µM
- COc1cc(-c2cc(=O)c3c(O)c(OC)c(OC)c(OC)c3o2)ccc1O — 22-fold lower, 45.7 µM
- COc1cc2oc(-c3ccc(O)c(O)c3)c(OC)c(=O)c2c(OC)c1O — 3300-fold lower, 0.302 µM
- COc1c(OC)c(OC)c2c(=O)cc(-c3ccc(O)c(O)c3)oc2c1OC — 31000-fold lower, 0.0324 µM
- COc1cc(-c2cc(=O)c3c(O)c(OC)c(OC4O[C@H](CO)[C@@H](O)[C@H](O)[C@H]4O)c(OC)c3o2)ccc1O (some centres not stated) — 48-fold lower, 20.9 µM
- COc1cc(OC)c2c(=O)cc(-c3ccc(O)c(O)c3)oc2c1O — 6200-fold lower, 0.162 µM
- COc1cc(O)c2c(=O)cc(-c3ccc(O)c(O)c3)oc2c1OC — 13000-fold lower, 0.0776 µM
- COc1c(O)c(Cc2ccccc2)c2oc(-c3ccc(O)c(O)c3)cc(=O)c2c1O — 29000-fold lower, 0.0339 µM
- COc1c(O)c(O)c2c(=O)cc(-c3ccccc3)oc2c1OC — 120-fold lower, 8.39 µM
- COc1c(O)c(OC)c2c(=O)cc(-c3ccccc3)oc2c1OC — 3.5-fold lower, 288 µM
- COc1cc(-c2cc(=O)c3c(O)c(OC)c(O)c(OC)c3o2)ccc1OC1O[C@H](CO)[C@@H](O)[C@H](O)[C@H]1O (some centres not stated) — 55-fold lower, 18.2 µM
- COc1cc(OC)c2c(=O)c(OC)c(-c3ccc(O)c(O)c3)oc2c1OC — 5900-fold lower, 0.17 µM
- C[C@H]1OC(Oc2c(-c3ccc(O)c(O)c3)oc3cc(O)cc(O)c3c2=O)[C@@H](O)[C@@H](O)[C@@H]1O (some centres not stated) — 850-fold lower, 1.17 µM
- O=c1cc(-c2ccc(O)cc2)oc2ccc(O)cc12 — 190-fold lower, 5.25 µM
- COc1cc(O)c2c(=O)cc(-c3ccc(O)c(O)c3)oc2c1O — 4400-fold lower, 0.229 µM
- COc1c(O)cc(OC)c2c(=O)cc(-c3ccc(O)c(O)c3)oc12 — 13000-fold lower, 0.0741 µM
- COc1cc(-c2cc(=O)c3c(O)c(OC)c(OC)cc3o2)ccc1O [CIRSILENEOL] — 150-fold lower, 6.76 µM
- COc1c(O)c(O)c(O)c2c(=O)cc(-c3ccc(O)c(O)c3)oc12 — 8300-fold lower, 0.12 µM
- COc1cc(O)c2c(=O)cc(-c3cc(O)c(OC)cc3OC)oc2c1 — 3.2-fold lower, 316 µM
- COc1cc2oc(-c3ccc(OC4O[C@H](CO)[C@@H](O)[C@H](O)[C@H]4O)cc3)cc(=O)c2c(O)c1OC (some centres not stated) — 62-fold lower, 16.2 µM
- O=c1cc(-c2ccc(O)cc2O)oc2cc(O)ccc12 — 440-fold lower, 2.29 µM
- COc1ccc(-c2cc(=O)c3c(O)c(OC)c(O)c(OC)c3o2)cc1OC — 34-fold lower, 29.5 µM
- COc1c(-c2ccc(O)c(O)c2)oc2cc(O)c(O)c(O)c2c1=O — 17000-fold lower, 0.0575 µM
- COc1c(O)c(O)c2c(=O)cc(-c3ccc(O)cc3)oc2c1OC — 1200-fold lower, 0.851 µM
- COc1c(OC(C)=O)c(OC(C)=O)c(OC(C)=O)c2c(=O)cc(-c3ccc(OC(C)=O)c(OC(C)=O)c3)oc12 — 3300-fold lower, 0.302 µM
- COc1c(O)cc2oc(-c3ccc(O)c(O)c3)c(OC)c(=O)c2c1O [AXILLARIN] — 36000-fold lower, 0.028 µM
- COc1cc2oc(-c3ccc(O)c(O)c3)cc(=O)c2c(OC)c1OC — 11000-fold lower, 0.0912 µM
- COc1cc(-c2cc(=O)c3c(O)c(OC)c(OC)cc3o2)ccc1OC1O[C@H](CO)[C@@H](O)[C@H](O)[C@H]1O (some centres not stated) — 76-fold lower, 13.2 µM
- COc1cc(-c2cc(=O)c3c(OC)c(O)c(OC)c(OC)c3o2)ccc1O — 160-fold lower, 6.31 µM
- COc1cc(-c2cc(=O)c3c(O)c(O)c(OC)c(OC)c3o2)ccc1O — 9.1-fold lower, 110 µM
- COc1cc2oc(-c3ccc(O)cc3)cc(=O)c2c(O)c1OC [CIRSIMARITIN] — 710-fold lower, 1.41 µM
- COc1cc2oc(-c3ccc(O)c(O)c3)c(C(C)=O)c(=O)c2c(OC)c1OC — 110-fold lower, 8.91 µM
